Source: article PMC10454678, “Synthesis of hydroxy benzoin/benzil analogs and investigation of their antioxidant, antimicrobial, enzyme inhibition, and cytotoxic activities” (Turkish Journal of Chemistry, 2021)
In brackets after ≈: the same amount, converted by molar mass. Several values for one entry are separate records, joined by “and”; a condition that tells them apart may be missing. Identical values can stand only once. Like-named read-outs stand apart in the source and are kept apart here.

How the values were obtained:
[1] = tested on: human cervical cancer cell line (HeLa); experiment: MTT cell proliferation, HeLa; settings: for GI50 / IC50: Homo sapiens, HeLa, 24 h; for GI50: read-out: GI50 HeLa cell line; for IC50: read-out: IC50 HeLa cell line
[2] = tested on: human retinal normal cell line (RPE); experiment: MTT cell proliferation, RPE; settings: for GI50 / IC50: Homo sapiens, 24 h; for GI50: read-out: GI50 RPE normal cell line; for IC50: read-out: IC50 RPE normal cell line
[3] = Ferric reducing antioxidant power (FRAP) assay; settings: Trolox equivalents; compounds 2 mg/mL, 30 °C 30 min, 595 nm
[4] = target: acetylcholinesterase (Homo sapiens, UniProt P22303); experiment: biochemical; settings: Tris-HCl pH 8.0, 25 °C, 405 nm; read-out: AChE IC50 (converted)
[5] = tested on: Candida albicans ATCC60193; experiment: MIC, microdilution, C. albicans; type: cell-based; settings: Candida albicans, read-out: MIC Ca
[6] = target: α-glucosidase; experiment: α-Glucosidase inhibition; type: biochemical; settings: PNPG, pH 6.8, 37 °C, 400 nm
Protocol: It was incubated at 37 °C for 15 min. Similarly, an enzyme-free blank was prepared. The reaction was stopped when sodium carbonate (50 μL, 0.2 M) was added.

[7] = target: butyrylcholinesterase (Homo sapiens, UniProt P06276); experiment: biochemical; settings: Tris-HCl pH 8.0, 25 °C, 405 nm; read-out: BChE IC50 (converted)
[8] = tested on: Mycobacterium smegmatis ATCC607; experiment: MIC, microdilution, M. smegmatis; type: cell-based; settings: Tub., BHI broth, 36 °C; for MIC: Mycolicibacterium smegmatis, ATCC607, 72 h, read-out: MIC Ms; for MIC Ms: 72 h
[9] = tested on: Bacillus cereus Roma709; experiment: MIC, microdilution, B. cereus; type: cell-based; settings: Bacillus cereus
[10] = tested on: Yersinia pseudotuberculosis ATCC911; experiment: microbe, parasite or virus in culture; type: cell-based; settings: Yersinia pseudotuberculosis, ATCC911, read-out: MIC Yp
[11] = tested on: Staphylococcus aureus ATCC25923; experiment: MIC, microdilution, S. aureus; type: cell-based; settings: Staphylococcus aureus
[12] = tested on: Streptococcus mutans RSKK07038; experiment: MIC, microdilution, S. mutans; type: cell-based; settings: Streptococcus mutans, read-out: MIC Sm
[13] = tested on: Pseudomonas aeruginosa ATCC27853; experiment: MIC, microdilution, P. aeruginosa; type: cell-based; settings: Pseudomonas aeruginosa
[14] = DPPH radical scavenging activity; settings: 0.1 mM DPPH, 50 min dark, 517 nm
[15] = tested on: Escherichia coli ATCC 25922; experiment: MIC, microdilution, E. coli; type: cell-based; settings: Escherichia coli
[16] = Copper ions reducing activity (CUPRAC); settings: Trolox equivalents; 30 min dark, room temperature, 450 nm
[17] = tested on: Enterococcus faecalis ATCC29212; experiment: MIC, microdilution, E. faecalis; type: cell-based; settings: Enterococcus faecalis
[18] = ATCC60193, fungus, YEPD broth, 48 h, 36 °C
[19] = RSKK07038, Gram (+), BHI broth, 72 h, 36 °C
[20] = ATCC27853, Gram (-), Mueller-Hinton broth, 18-24 h, 36 °C, read-out: MIC Pa
[21] = ROMA709, Gram (+), Mueller-Hinton broth, 18-24 h, 36 °C, read-out: MIC Bc
[22] = ATCC25923, Gram (+), Mueller-Hinton broth, 18-24 h, 36 °C, read-out: MIC Sa
[23] = ATCC25922, Gram (-), Mueller-Hinton broth, 18-24 h, 36 °C, read-out: MIC Ec
[24] = ATCC29212, Gram (+), Mueller-Hinton broth, 18-24 h, 36 °C, read-out: MIC Ef

butyrylcholinesterase, sequence (P06276 29-602): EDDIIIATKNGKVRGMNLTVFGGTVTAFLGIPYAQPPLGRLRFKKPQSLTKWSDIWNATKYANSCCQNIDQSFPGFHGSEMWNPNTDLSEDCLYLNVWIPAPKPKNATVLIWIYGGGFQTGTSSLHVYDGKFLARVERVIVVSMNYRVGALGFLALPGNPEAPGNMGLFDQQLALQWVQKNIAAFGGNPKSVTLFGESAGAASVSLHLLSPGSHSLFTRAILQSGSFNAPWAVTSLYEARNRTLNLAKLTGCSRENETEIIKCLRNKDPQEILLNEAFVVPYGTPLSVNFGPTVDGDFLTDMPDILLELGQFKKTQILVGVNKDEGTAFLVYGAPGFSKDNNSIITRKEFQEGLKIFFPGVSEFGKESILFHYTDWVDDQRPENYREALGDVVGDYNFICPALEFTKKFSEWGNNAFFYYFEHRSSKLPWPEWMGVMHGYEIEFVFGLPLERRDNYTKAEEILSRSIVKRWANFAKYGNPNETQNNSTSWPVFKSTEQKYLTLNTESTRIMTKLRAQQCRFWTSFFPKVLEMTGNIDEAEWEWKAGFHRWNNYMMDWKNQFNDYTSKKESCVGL
acetylcholinesterase, sequence (P22303 32-614, species assumed): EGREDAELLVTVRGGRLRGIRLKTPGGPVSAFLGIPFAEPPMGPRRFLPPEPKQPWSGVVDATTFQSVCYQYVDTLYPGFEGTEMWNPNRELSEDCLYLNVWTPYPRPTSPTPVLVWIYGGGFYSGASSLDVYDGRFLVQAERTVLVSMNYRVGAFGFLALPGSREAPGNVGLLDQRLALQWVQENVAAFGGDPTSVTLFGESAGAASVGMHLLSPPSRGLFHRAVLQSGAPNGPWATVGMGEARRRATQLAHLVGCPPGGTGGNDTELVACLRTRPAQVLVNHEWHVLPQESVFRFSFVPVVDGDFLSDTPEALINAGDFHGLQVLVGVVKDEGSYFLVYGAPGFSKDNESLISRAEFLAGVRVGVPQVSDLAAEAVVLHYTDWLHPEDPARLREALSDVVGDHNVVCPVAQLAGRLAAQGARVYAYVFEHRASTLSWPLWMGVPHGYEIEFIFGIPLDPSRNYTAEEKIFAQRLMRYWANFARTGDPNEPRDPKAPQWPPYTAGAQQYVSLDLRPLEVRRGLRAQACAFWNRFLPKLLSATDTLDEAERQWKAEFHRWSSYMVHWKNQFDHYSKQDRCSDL

SMILES	FRAP, the iron reducing antioxidant power [3]	IC50 [4]	MIC [5, 18]	α-Glucosidase IC50 [6]	IC50 [7]	MIC [8]	MIC ([9]; ROMA709, read-out: MIC Bc)	MIC [10]	MIC ([11]; ATCC25923, read-out: MIC Sa)	MIC [12, 19]	MIC [13, 20]	DPPH radical scavenging capacity (SC50) [14]	MIC ([15]; ATCC25922, read-out: MIC Ec)	CUPRAC, copper reducing antioxidant power [16]	MIC [9, 21]	MIC [11, 22]	MIC [15, 23]	MIC [17, 24]	MIC Ms [8]	other results
N.N.[Cl][Pt][Cl] [Cisplatin, reference compound]	–	–	–	–	–	–	–	–	–	–	–	–	–	–	–	–	–	–	–	GI50 HeLa cell line ([1]; MTT, 24 h incubation): 1.13 µg/mL; IC50 HeLa cell line ([1]; MTT, 24 h incubation): 42.76 µg/mL; GI50 RPE normal cell line ([2]; MTT, 24 h incubation): 1.56 µg/mL; IC50 RPE normal cell line ([2]; MTT, 24 h incubation): 58.77 µg/mL
O=C(c1ccc(O)cc1)C(O)c1ccccc1 (stereo not drawn) [Compound 2, 2-Hydroxy-1-(4-hydroxyphenyl)-2-phenylethanone]	1881 ± 75.5 μg/mL trolox/gram DW	1070 µM	516 µg/mL (≈ 2260 µM)	547.97 µg/mL	323 µM	129 µg/mL (≈ 565 µM)	1030 µg/mL (≈ 4520 µM)	1030 µg/mL (≈ 4520 µM)	1030 µg/mL (≈ 4520 µM)	1030 µg/mL (≈ 4520 µM)	2060 µg/mL (≈ 9050 µM)	13.78 ± 1.3 mg/mL	1030 µg/mL (≈ 4520 µM)	140.00 ± 11.5 μg/mL trolox/gram DW	–	–	–	–	–	–
O=C(c1cccc(O)c1)C(O)c1cccc(O)c1 (stereo not drawn) [Compound 4, 1,2-Bis(3-hydroxyphenyl)-2-hydroxyethanone]	1534 ± 75.0 μg/mL trolox/gram DW	454 µM	1280 µg/mL (≈ 5240 µM)	>1000 µg/mL	462 µM	160 µg/mL (≈ 655 µM)	–	640 µg/mL (≈ 2620 µM)	–	–	320 µg/mL (≈ 1310 µM)	8.16 ± 0.3 mg/mL	–	398.33 ± 22.1 μg/mL trolox/gram DW	160 µg/mL (≈ 655 µM)	640 µg/mL (≈ 2620 µM)	320 µg/mL (≈ 1310 µM)	–	–	GI50 [1]: 1.12 µg/mL (≈ 4.59 µM); IC50 [1]: 42.7 µg/mL (≈ 175 µM); GI50 [2]: 1.15 µg/mL (≈ 4.71 µM); IC50 [2]: 30.3 µg/mL (≈ 124 µM)
O=C(c1ccc(O)cc1)C(O)c1cccc(O)c1 (stereo not drawn) [Compound 5, 2-Hydroxy-2-(3-hydroxyphenyl)-1-(4-hydroxyphenyl)ethanone]	2090 ± 101.4 μg/mL trolox/gram DW	3230 µM	–	>1000 µg/mL	> 4090 µM	48 µg/mL (≈ 197 µM)	–	775 µg/mL (≈ 3170 µM)	–	48 µg/mL (≈ 197 µM)	96 µg/mL (≈ 393 µM)	8.12 ± 1.2 mg/mL	–	1113.33±64 μg/mL trolox/gram DW and 1113.33 ± 64.9 μg/mL trolox/gram DW	48 µg/mL (≈ 197 µM)	96 µg/mL (≈ 393 µM)	387 µg/mL (≈ 1580 µM)	1550 µg/mL (≈ 6350 µM)	–	–
O=C(c1cc(O)cc(O)c1)C(O)c1cc(O)cc(O)c1 (stereo not drawn) [Compound 7, 1,2-Bis(3,5-dihydroxyphenyl)-2-hydroxyethanone]	1715 ± 96.8 μg/mL trolox/gram DW	443 µM	283 µg/mL (≈ 1020 µM)	>1000 µg/mL	> 3620 µM	70 µg/mL (≈ 253 µM)	141 µg/mL (≈ 510 µM)	1140 µg/mL (≈ 4110 µM)	283 µg/mL (≈ 1020 µM)	–	283 µg/mL (≈ 1020 µM)	10.85 ± 0.7 mg/mL	141 µg/mL (≈ 510 µM)	95.00 ± 2.4 μg/mL trolox/gram DW	–	–	–	141 µg/mL (≈ 510 µM)	–	–
O=C(C(=O)c1ccc(O)cc1)c1ccccc1 [Compound 9, 1-(4-Hydroxyphenyl)-2-phenylethane-1,2-dione]	1946 ± 83.7 μg/mL trolox/gram DW	637 µM	108 µg/mL (≈ 477 µM)	47.78 µg/mL	> 4420 µM	108 µg/mL (≈ 477 µM)	108 µg/mL (≈ 477 µM)	217 µg/mL (≈ 959 µM)	108 µg/mL (≈ 477 µM)	–	108 µg/mL (≈ 477 µM)	8.64 ± 0.5 mg/mL	108 µg/mL (≈ 477 µM)	48.33 ± 5.5 μg/mL trolox/gram DW	–	–	–	108 µg/mL (≈ 477 µM)	–	–
O=C(C(=O)c1cccc(O)c1)c1cccc(O)c1 [Compound 11, 1,2-Bis(3-hydroxyphenyl)ethane-1,2-dione]	1340 ± 37.9 μg/mL trolox/gram DW	257 µM	36 µg/mL (≈ 149 µM)	66.700 µg/mL	1400 µM	9 to 18 µg/mL (≈ 37.2 to 74.3 µM)	–	145 µg/mL (≈ 599 µM)	–	18 µg/mL (≈ 74.3 µM)	18 µg/mL (≈ 74.3 µM)	10.03 ± 0.8 mg/mL	–	175.00 ± 3.5 μg/mL trolox/gram DW	18 µg/mL (≈ 74.3 µM)	9 µg/mL (≈ 37.2 µM)	36 µg/mL (≈ 149 µM)	–	9 µg/mL (≈ 37.2 µM)	–
O=C(C(=O)c1cccc(O)c1)c1ccc(O)cc1 [Compound 12, 1-(4-Hydroxyphenyl)-2-(3-hydroxyphenyl)ethane-1,2-dione]	1555 ± 34.1 μg/mL trolox/gram DW	2070 µM	18 µg/mL (≈ 74.3 µM)	54.69 µg/mL	1910 µM	9 to 18 µg/mL (≈ 37.2 to 74.3 µM)	–	38 µg/mL (≈ 157 µM)	–	–	75 µg/mL (≈ 310 µM)	12.87 ± 0.9 mg/mL	–	155.00 ± 1.0 μg/mL trolox/gram DW	75 µg/mL (≈ 310 µM)	38 µg/mL (≈ 157 µM)	75 µg/mL (≈ 310 µM)	18 µg/mL (≈ 74.3 µM)	18 µg/mL (≈ 74.3 µM)	GI50 [1]: 2.04 µg/mL (≈ 8.42 µM); IC50 [1]: 85.2 µg/mL (≈ 352 µM); GI50 [2]: 1.92 µg/mL (≈ 7.93 µM); IC50 [2]: 105 µg/mL (≈ 434 µM)
O=C(C(=O)c1cc(O)cc(O)c1)c1cccc(O)c1 [Compound 13, 1-(3,5-Dihydroxyphenyl)-2-(3-hydroxyphenyl)ethane-1,2-dione]	1844 ± 56.2 μg/mL trolox/gram DW	> 3870 µM	–	>1000 µg/mL	> 3870 µM	9 to 18 µg/mL (≈ 34.9 to 69.7 µM)	–	167 µg/mL (≈ 647 µM)	–	–	–	9.42 ± 0.8 mg/mL	167 µg/mL (≈ 647 µM)	–	11 µg/mL (≈ 42.6 µM)	11 µg/mL (≈ 42.6 µM)	–	–	11 µg/mL (≈ 42.6 µM)	MIC ([17]; ATCC29212, read-out: MIC Ef): 21 µg/mL (≈ 81.3 µM); MIC ([5]; ATCC60193, 48 h): 41 µg/mL (≈ 159 µM); MIC ([12]; RSKK07038, 72 h): 21 µg/mL (≈ 81.3 µM); MIC ([13]; ATCC27853, read-out: MIC Pa): 11 µg/mL (≈ 42.6 µM)
